Measurements taken from ChEMBL document CHEMBL4418911, “Methods to identify modulators” (2012).
The source made the active and inactive calls. The rule behind the calls is not given here.

What was measured:
[1] = target: T1, Taste receptor type 2 member 16 (Homo sapiens) (UniProt Q9NYV7); assay: Activation of full-length human TAS2R16 expressed in HEK293T/Galpha16-gustducin 44 cells assessed as effect on calcium flux by measuring deltaF/F0 ratio at 10 mM in presence of (E)-4-(2,2,3-trimethylcyclopent-3-enyl)but-2-enoic acid by Fluo-4 dye based FLIPR assay; type: functional, cell-based
T1 sequence (whole entry): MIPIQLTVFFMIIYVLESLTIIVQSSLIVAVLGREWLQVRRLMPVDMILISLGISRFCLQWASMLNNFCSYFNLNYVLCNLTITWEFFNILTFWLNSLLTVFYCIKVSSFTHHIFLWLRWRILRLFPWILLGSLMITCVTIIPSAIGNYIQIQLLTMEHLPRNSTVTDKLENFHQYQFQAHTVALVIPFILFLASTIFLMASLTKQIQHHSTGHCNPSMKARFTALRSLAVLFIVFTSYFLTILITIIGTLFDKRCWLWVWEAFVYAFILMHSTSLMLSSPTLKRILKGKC

[2] = target: T1, Taste receptor type 2 member 16 (Homo sapiens); assay: Activation of full-length human TAS2R16 expressed in HEK293T/Galpha16-gustducin 44 cells assessed as effect on calcium flux by measuring deltaF/F0 ratio at 5 mM in presence of (E)-4-(2,2,3-trimethylcyclopent-3-enyl)but-2-enoic acid by Fluo-4 dye based FLIPR assay; type: functional, cell-based
[3] = target: T1, Taste receptor type 2 member 16 (Homo sapiens); assay: Activation of full-length human TAS2R16 expressed in HEK293T/Galpha16-gustducin 44 cells assessed as effect on calcium flux by measuring deltaF/F0 ratio at 2.5 mM in presence of (E)-4-(2,2,3-trimethylcyclopent-3-enyl)but-2-enoic acid by Fluo-4 dye based FLIPR assay; type: functional, cell-based
[4] = target: T1, Taste receptor type 2 member 16 (Homo sapiens); assay: Activation of full-length human TAS2R16 expressed in HEK293T/Galpha16-gustducin 44 cells assessed as effect on calcium flux by measuring deltaF/F0 ratio at 0.625 mM in presence of (E)-4-(2,2,3-trimethylcyclopent-3-enyl)but-2-enoic acid by Fluo-4 dye based FLIPR assay; type: functional, cell-based
[5] = target: T1, Taste receptor type 2 member 16 (Homo sapiens); assay: Activation of full-length human TAS2R16 expressed in HEK293T/Galpha16-gustducin 44 cells assessed as effect on calcium flux by measuring deltaF/F0 ratio at 0.3125 mM in presence of (E)-4-(2,2,3-trimethylcyclopent-3-enyl)but-2-enoic acid by Fluo-4 dye based FLIPR assay; type: functional, cell-based
[6] = target: T1, Taste receptor type 2 member 16 (Homo sapiens); assay: Activation of full-length human TAS2R16 expressed in HEK293T/Galpha16-gustducin 44 cells assessed as effect on calcium flux by measuring deltaF/F0 ratio at 0.1563 mM in presence of (E)-4-(2,2,3-trimethylcyclopent-3-enyl)but-2-enoic acid by Fluo-4 dye based FLIPR assay; type: functional, cell-based
[7] = target: T1, Taste receptor type 2 member 16 (Homo sapiens); assay: Activation of full-length human TAS2R16 expressed in HEK293T/Galpha16-gustducin 44 cells assessed as effect on calcium flux by measuring deltaF/F0 ratio at 0.0781 mM in presence of (E)-4-(2,2,3-trimethylcyclopent-3-enyl)but-2-enoic acid by Fluo-4 dye based FLIPR assay; type: functional, cell-based
[8] = target: T1, Taste receptor type 2 member 16 (Homo sapiens); assay: Activation of full-length human TAS2R16 expressed in HEK293T/Galpha16-gustducin 44 cells assessed as effect on calcium flux by measuring deltaF/F0 ratio at 0.0391 mM in presence of (E)-4-(2,2,3-trimethylcyclopent-3-enyl)but-2-enoic acid by Fluo-4 dye based FLIPR assay; type: functional, cell-based
[9] = target: T1, Taste receptor type 2 member 16 (Homo sapiens); assay: Activation of full-length human TAS2R16 expressed in HEK293T/Galpha16-gustducin 44 cells assessed as effect on calcium flux by measuring deltaF/F0 ratio in presence of 4-(2,2,3-trimethylcyclo-pentyl)butanamide) by Fluo-4 dye based FLIPR assay; type: functional, cell-based
[10] = target: T2, Taste receptor type 2 member 1 (Homo sapiens) (UniProt Q9NYW7); assay: Activation of full-length human TAS2R1 expressed in HEK293T/Galpha16-gustducin 44 cells assessed as effect on calcium flux by measuring deltaF/F0 ratio by Fluo-4 dye based FLIPR assay; type: functional, cell-based
T2 sequence (whole entry): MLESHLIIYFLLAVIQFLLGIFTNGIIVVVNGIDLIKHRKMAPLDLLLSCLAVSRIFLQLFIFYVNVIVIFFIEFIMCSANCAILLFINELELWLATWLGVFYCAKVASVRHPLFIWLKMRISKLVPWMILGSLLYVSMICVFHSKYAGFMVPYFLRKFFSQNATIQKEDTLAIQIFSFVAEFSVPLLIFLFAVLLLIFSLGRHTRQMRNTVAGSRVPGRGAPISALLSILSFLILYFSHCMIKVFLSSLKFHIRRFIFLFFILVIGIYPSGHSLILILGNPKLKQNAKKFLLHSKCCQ

[11] = target: T3, Taste receptor type 2 member 10 (Homo sapiens) (UniProt Q9NYW0); assay: Activation of full-length human TAS2R10 expressed in HEK293T/Galpha16-gustducin 44 cells assessed as effect on calcium flux by measuring deltaF/F0 ratio by Fluo-4 dye based FLIPR assay; type: functional, cell-based
T3 sequence (whole entry): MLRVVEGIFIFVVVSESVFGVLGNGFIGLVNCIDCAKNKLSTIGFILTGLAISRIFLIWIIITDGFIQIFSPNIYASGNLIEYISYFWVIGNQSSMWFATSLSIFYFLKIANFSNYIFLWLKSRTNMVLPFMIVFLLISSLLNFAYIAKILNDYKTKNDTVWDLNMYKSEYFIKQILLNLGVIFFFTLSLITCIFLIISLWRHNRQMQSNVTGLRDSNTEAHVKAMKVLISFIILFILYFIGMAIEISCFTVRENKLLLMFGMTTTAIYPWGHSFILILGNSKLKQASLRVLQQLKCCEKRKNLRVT

[12] = target: T4, Taste receptor type 2 member 46 (Homo sapiens) (UniProt P59540); assay: Activation of full-length human TAS2R46 expressed in HEK293T/Galpha16-gustducin 44 cells assessed as effect on calcium flux by measuring deltaF/F0 ratio by Fluo-4 dye based FLIPR assay; type: functional, cell-based
T4 sequence (whole entry): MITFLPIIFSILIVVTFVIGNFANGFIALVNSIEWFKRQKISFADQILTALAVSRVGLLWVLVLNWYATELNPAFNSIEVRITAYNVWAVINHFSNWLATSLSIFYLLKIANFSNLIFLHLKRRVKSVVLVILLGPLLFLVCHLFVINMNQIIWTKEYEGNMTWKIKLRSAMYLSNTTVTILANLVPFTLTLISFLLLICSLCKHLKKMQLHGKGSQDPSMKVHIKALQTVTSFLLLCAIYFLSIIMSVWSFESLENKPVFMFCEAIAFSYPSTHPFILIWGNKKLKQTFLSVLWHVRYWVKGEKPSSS

[13] = target: T5, Taste receptor type 2 member 31 (Homo sapiens) (UniProt P59538); assay: (§1) Activation of full-length human TAS2R44 expressed in HEK293T/Galpha16-gustducin 44 cells assessed as effect on calcium flux by measuring deltaF/F0 ratio at 50 mM in presence of (E)-4-(2,2,3-trimethylcyclopent-3-enyl)but-2-enoic acid by Fluo-4 dye based FLIPR assay (reference value: 0.192 +/- 0.011); type: functional, cell-based
T5 sequence (whole entry): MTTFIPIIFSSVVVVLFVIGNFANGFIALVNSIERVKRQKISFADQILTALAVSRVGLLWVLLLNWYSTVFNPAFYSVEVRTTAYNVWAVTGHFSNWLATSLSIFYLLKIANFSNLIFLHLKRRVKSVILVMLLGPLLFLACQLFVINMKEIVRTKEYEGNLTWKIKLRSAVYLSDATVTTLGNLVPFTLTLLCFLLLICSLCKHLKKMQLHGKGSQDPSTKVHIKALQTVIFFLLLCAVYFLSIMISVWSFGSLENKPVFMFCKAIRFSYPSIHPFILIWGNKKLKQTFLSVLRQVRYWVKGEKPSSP

[14] = target: T5, Taste receptor type 2 member 31 (Homo sapiens); assay: Activation of full-length human TAS2R44 expressed in HEK293T/Galpha16-gustducin 44 cells assessed as effect on calcium flux by measuring deltaF/F0 ratio at 25 mM in presence of (E)-4-(2,2,3-trimethylcyclopent-3-enyl)but-2-enoic acid by Fluo-4 dye based FLIPR assay (reference value: 0.110 +/- 0.019); type: functional, cell-based
[15] = target: T5, Taste receptor type 2 member 31 (Homo sapiens); assay: as §1, with “12.5” for “50”, “0.051” for “0.192”, “0.004)” for “0.011)”; type: functional, cell-based
[16] = target: T5, Taste receptor type 2 member 31 (Homo sapiens); assay: as §1, with “6.25” for “50”, “0.027” for “0.192”, “0.029)” for “0.011)”; type: functional, cell-based
[17] = target: T5, Taste receptor type 2 member 31 (Homo sapiens); assay: as §1, with “3.125” for “50”, “0.030” for “0.192”, “0.042)” for “0.011)”; type: functional, cell-based
[18] = target: T5, Taste receptor type 2 member 31 (Homo sapiens); assay: as §1, with “0.7813” for “50”, “0.038” for “0.192”, “0.042)” for “0.011)”; type: functional, cell-based
[19] = target: T5, Taste receptor type 2 member 31 (Homo sapiens); assay: as §1, with “0.3906” for “50”, “0.046” for “0.192”, “0.048)” for “0.011)”; type: functional, cell-based
HEK-293T = assay: Effect on calcium flux in HEK293T/Galpha16-gustducin 44 cells assessed as deltaF/F0 ratio at 100 mM in presence of (E)-4-(2,2,3-trimethylcyclopent-3-enyl)but-2-enoic acid, by Fluo-4 dye based FLIPR assay; type: functional, Homo sapiens
[20] = target: T6, Taste receptor type 2 member 31 (Homo sapiens, UniProt P59538); assay: Agonist activity at full-length human TAS2R44 expressed in HEK293T/Galpha16-gustducin 44 cells assessed as effect on calcium flux by measuring deltaF/F0 ratio in presence of (E)-4-(2,2,3-trimethylcyclopent-3-enyl)but-2-enoic acid by Fluo-4 dye based FLIPR assay; type: functional, cell-based
T6 sequence (P59538 whole entry): T5 sequence (whole entry)

[21] = target: T5, Taste receptor type 2 member 31 (Homo sapiens); assay: Agonist activity at full-length human TAS2R44 expressed in HEK293T/Galpha16-gustducin 44 cells assessed as effect on calcium flux by measuring deltaF/F0 ratio in presence of 4-(2,2,3-trimethylcyclo-pentyl)butanamide) by Fluo-4 dye based FLIPR assay; type: functional, cell-based
Homo sapiens [22] = species: Homo sapiens; assay: Induction of bitter sensitivity in bitter sensitive human panelists tasting solution containing 3 mM compound in presence of 13 ppm (E)-4-(2,2,3-trimethylcyclopent-3-enyl)but-2-enoic acid; type: functional, organism-based
Homo sapiens [23] = species: Homo sapiens; assay: Induction of bitter sensitivity in bitter sensitive human panelists tasting solution containing 3 mM compound in absence of 13 ppm (E)-4-(2,2,3-trimethylcyclopent-3-enyl)but-2-enoic acid; type: functional, organism-based

Compound `OC[C@H]1O[C@@H](Oc2ccccc2)[C@H](O)[C@@H](O)[C@@H]1O` has a Ratio [1] of 2.83, a Ratio [2] of 2.65 and a Ratio [3] of 2.48. The Ratio [4] was 2.14, the Ratio [5] was 1.55 and the Ratio [6] was 0.702. For the same compound, the Ratio [7] was 0.108, the Ratio [8] was -0.013 and the Activity [9] was “Active”.

In the case of `OC[C@H]1O[C@H](O[C@]2(CCl)O[C@H](CCl)[C@@H](O)[C@@H]2O)[C@H](O)[C@@H](O)[C@H]1Cl` [SUCRALOSE], the Activity [10] is reported as “Dose-dependent effect”, the Activity [11] is reported as “Dose-dependent effect” and the Activity [12] is reported as “Dose-dependent effect”. For the same compound, the Ratio [13] was -0.025, the Ratio [14] was -0.035 and the Ratio [15] was -0.015. It also gave a Ratio [16] of 0, a Ratio [17] of 0.005 and a Ratio [18] of 0.01. The Ratio [19] was 0.011, the Ratio (HEK-293T) was -0.175 and the EC50 [20] was “Not Active”. The Activity [21] was “Active”, the Activity (Homo sapiens [22]) was “inactive” and the Activity (Homo sapiens [23]) was “Active”.
